# According to the NIST ThermoML archive (doi:10.1016/j.jct.2005.03.013):
# ± gives the expanded uncertainty stated by the source.
# Legend:
# [1] = for viscosity: 101.33 kPa, Liquid; for Triple point temperature: Crystal
# [2] = molar heat capacity at constant pressure; details: 101.33 kPa, Liquid, Large sample (1 g) DSC
Compound,viscosity ([1]; 283 K),viscosity ([1]; 293 K),viscosity ([1]; 298 K),viscosity ([1]; 303 K),viscosity ([1]; 313 K),viscosity ([1]; 323 K),viscosity ([1]; 333 K),viscosity ([1]; 343 K),Triple point temperature [1],Glass transition temperature [1],molar heat capacity at constant pressure ([2]; 298 K),molar heat capacity at constant pressure ([2]; 323 K)
CCCCCC[n+]1ccccc1.O=S(=O)([N-]S(=O)(=O)C(F)(F)F)C(F)(F)F [1-hexylpyridinium bis(trifluromethylsulfonyl)imide],189 ± 14 mPa·s,106 ± 7 mPa·s,80 ± 5 mPa·s,64 ± 3 mPa·s,42 ± 2 mPa·s,29 ± 2 mPa·s,21 ± 1 mPa·s,16 ± 1 mPa·s,273 ± 3 K,-77 ± 4 °C,612 ± 62 J/K/mol,632 ± 64 J/K/mol
CCCCCCn1cc[n+](C)c1.F[B-](F)(F)F [1-hexyl-3-methylimidazolium tetrafluoroborate],,,,,,,,,,-79 ± 4 °C,416 ± 42 J/K/mol,433 ± 44 J/K/mol
CCCCCCCC[n+]1ccn(C)c1.F[B-](F)(F)F [1-methyl-3-octylimidazolium tetrafluoroborate],,,,,,,,,,-81 ± 4 °C,506 ± 51 J/K/mol,526 ± 53 J/K/mol
CCCCCCn1cc[n+](C)c1.[Br-] [3-hexyl-1-methyl-1H-imidazolium bromide],,,,,,,,,,-49 ± 4 °C,344 ± 35 J/K/mol,357 ± 36 J/K/mol
CCCCCC[n+]1cc(C)cc(C)c1.O=S(=O)([N-]S(=O)(=O)C(F)(F)F)C(F)(F)F,251 ± 20 mPa·s,136 ± 10 mPa·s,104 ± 6 mPa·s,81 ± 4 mPa·s,52 ± 3 mPa·s,35 ± 2 mPa·s,24 ± 1 mPa·s,18 ± 1 mPa·s,283 ± 3 K,-76 ± 4 °C,620 ± 63 J/K/mol,665 ± 67 J/K/mol
CCCCn1cc[n+](C)c1.COCCOCCOS(=O)(=O)[O-] [1-butyl-3-methylimidazolium 2-(2-methoxyethoxy)ethyl sulfate],4070 ± 730 mPa·s,1676 ± 260 mPa·s,1033 ± 140 mPa·s,731 ± 82 mPa·s,392 ± 36 mPa·s,228 ± 17 mPa·s,146 ± 9 mPa·s,98 ± 5 mPa·s,,-62 ± 4 °C,643 ± 65 J/K/mol,652 ± 66 J/K/mol
CCCC[n+]1cccc(C)c1.F[B-](F)(F)F [1-butyl-3-methylpyridinium tetrafluoroborate],517 ± 53 mPa·s,246 ± 22 mPa·s,177 ± 13 mPa·s,132 ± 8 mPa·s,78 ± 4 mPa·s,48 ± 3 mPa·s,33 ± 2 mPa·s,23 ± 1 mPa·s,,-76 ± 4 °C,405 ± 41 J/K/mol,421 ± 43 J/K/mol
